In paper PMC7070036, “An amber obligate active site-directed ligand evolution technique for phage display” (Nature Communications, 2020):
Several values for one entry are separate records, joined by “and”; a condition that tells them apart may be missing. Identical values can stand only once. Starred links: 1 amine or outer side, 2 acyl side, 3 side chain; linkers in the order of their positions; H or OH if unused. Non-standard residues stand in square brackets, D forms with d. Residues, ends and D or L forms follow the SMILES beside them. Lys(thiomyristoyl) = CCCCCCCCCCCCCC(=S)NCCCC[C@H](N)C(=O)O; X1 = CCCC(=S)NCCCC[C@H](N[*:1])C(=O)[*:2]; Abu = CC[C@H](N)C(=O)O

Assays:
Format in all cases: biochemical
SIRT2 [1] = target: T1, SIRT2 (Homo sapiens, UniProt Q8IXJ6); test: Continuous fluorogenic sirtuin inhibition assay, SIRT2 (tBuK peptides, TB)
T1 sequence (Q8IXJ6 1-389): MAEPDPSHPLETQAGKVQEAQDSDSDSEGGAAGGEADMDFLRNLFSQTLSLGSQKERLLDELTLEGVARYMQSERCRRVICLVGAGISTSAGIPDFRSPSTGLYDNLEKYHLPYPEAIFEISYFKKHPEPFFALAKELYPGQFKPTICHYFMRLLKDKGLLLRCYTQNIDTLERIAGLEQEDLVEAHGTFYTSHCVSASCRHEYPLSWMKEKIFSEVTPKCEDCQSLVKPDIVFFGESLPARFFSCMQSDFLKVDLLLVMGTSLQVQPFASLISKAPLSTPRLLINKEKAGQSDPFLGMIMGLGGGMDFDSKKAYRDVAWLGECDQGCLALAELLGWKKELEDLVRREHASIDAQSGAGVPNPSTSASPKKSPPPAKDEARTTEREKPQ
Protocol: (§1) The continuous assay for comparing isoform specificity of S2P04 was performed using the universal fluorogenic sirtuin substrate described by Schuster et al.[41]. Briefly, the inhibition reactions were performed in 50-µL volumes at 37 °C in black, half-area, 96-well plates. The sirtuin enzyme (0.25 µM) was preincubated with different concentrations of the peptide S2P04 (0.0064–50 µM for SIRT1 and SIRT2, 0.5–100 µM for SIRT3) or TB (0.16–150 µM for SIRT1–SIRT3), and 1 mM NAD^+ in assay buffer (20 mM Tris, pH 7.8, 150 mM NaCl, 5 mM MgCl2, and 1 mM DTT) for 15 min. Following incubation, the reaction started with the addition of the fluorogenic substrate (5 µM), and product formation was monitored by measuring the fluorescence intensity every 20 s for 5 min (SIRT2) or 30 min (SIRT1 and SIRT3) in a BioTek Synergy H1 microplate reader at λex = 320 nm and λem = 408 nm (gain = 130 and read height = 7 mm). Initial rates of product formation were determined by a linear regression of the plot of fluorescence intensity vs. time and normalized relative to 0% (max inhibitor) and 100% (no inhibitor) controls. The assay was repeated to determine the IC50 values of all BuK peptides for SIRT2. IC50 values were determined by nonlinear regression of the plot of the normalized initial rate vs. inhibitor concentration using GraphPad Prism. The determined IC50 values are provided in Supplementary Table 2, and inhibition curves can be seen in Supplementary Fig. 20.

SIRT1 = target: T2, SIRT1 (Homo sapiens, UniProt Q96EB6); test: Continuous fluorogenic sirtuin inhibition assay, SIRT1
T2 sequence (Q96EB6 1-747): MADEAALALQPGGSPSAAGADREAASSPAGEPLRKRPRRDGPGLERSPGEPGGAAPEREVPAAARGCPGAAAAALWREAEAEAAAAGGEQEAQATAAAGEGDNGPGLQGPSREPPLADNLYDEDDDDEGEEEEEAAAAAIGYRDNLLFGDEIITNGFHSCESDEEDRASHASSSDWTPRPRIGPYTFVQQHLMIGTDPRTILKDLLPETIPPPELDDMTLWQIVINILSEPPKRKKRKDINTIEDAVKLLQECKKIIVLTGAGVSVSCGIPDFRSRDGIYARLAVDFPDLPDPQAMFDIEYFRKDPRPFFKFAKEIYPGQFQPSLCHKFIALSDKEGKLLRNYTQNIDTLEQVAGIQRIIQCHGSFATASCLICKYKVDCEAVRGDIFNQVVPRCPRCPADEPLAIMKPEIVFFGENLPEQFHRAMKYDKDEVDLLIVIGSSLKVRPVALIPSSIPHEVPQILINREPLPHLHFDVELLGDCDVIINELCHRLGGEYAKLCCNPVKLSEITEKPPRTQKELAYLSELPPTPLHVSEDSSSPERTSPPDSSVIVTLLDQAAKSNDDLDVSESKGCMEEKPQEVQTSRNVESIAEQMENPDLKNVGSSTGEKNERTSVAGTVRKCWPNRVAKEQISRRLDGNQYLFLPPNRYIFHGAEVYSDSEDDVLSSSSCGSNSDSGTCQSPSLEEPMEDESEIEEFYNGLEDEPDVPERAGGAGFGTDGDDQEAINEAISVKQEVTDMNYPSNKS
Protocol: as §1

SIRT3 = target: T3, SIRT3 (Homo sapiens, UniProt Q9NTG7); test: Continuous fluorogenic sirtuin inhibition assay, SIRT3
T3 sequence (Q9NTG7 1-399): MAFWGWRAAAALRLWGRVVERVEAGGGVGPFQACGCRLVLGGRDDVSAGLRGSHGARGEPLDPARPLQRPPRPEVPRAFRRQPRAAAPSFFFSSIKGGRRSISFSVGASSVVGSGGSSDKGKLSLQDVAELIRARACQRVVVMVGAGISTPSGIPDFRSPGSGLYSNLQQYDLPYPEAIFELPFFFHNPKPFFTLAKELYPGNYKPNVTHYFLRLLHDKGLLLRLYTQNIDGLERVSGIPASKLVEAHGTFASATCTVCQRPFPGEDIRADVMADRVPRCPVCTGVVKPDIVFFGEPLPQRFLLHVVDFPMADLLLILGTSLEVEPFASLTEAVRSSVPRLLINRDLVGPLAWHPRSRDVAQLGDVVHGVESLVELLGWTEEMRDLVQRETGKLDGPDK
Protocol: as §1

SIRT2 [2] = target: T1, SIRT2; test: SIRT2 inhibition assay for thiomyristoyl peptides; details: for %Activity, SIRT2: listed as S2P04 (Abu)-tMyK
Protocol: Assays were performed in 40-µL volumes at 37 °C in black, 384-well plates. […] Following incubation, the reaction started with the addition of the fluorogenic substrate (5 µM), and product formation was monitored by measuring the fluorescence intensity every 20 s for 5 min (SIRT2) in a BioTek Synergy H1 microplate reader at λex = 320 nm and λem = 408 nm (gain = 130 and read height = 7 mm). Initial rates were determined using the plot of fluorescence vs. time for linear portions of each curve. IC50 values were then determined using GraphPad Prism to fit a nonlinear regression to the normalized rates vs. inhibitor concentration.

[3] = mean ± SD of two independent experiments

Question: What does the source list for `CCCC(=S)NCCCC[C@H](NC(=O)[C@@H](NC(=O)[C@@H](NC(=O)[C@H](CS)NC(=O)[C@@H](N)[C@@H](C)O)[C@@H](C)O)C(C)C)C(=O)N[C@H](C(=O)NCC(N)=O)[C@@H](C)CC` [S2P04-tBuK] (H-TCTV[X1]IG-NH2)?
Answer: remaining activity at 0.0064 µM (SIRT2 [1]; inhibitor 0.0064 µM, read-out: Normalized Activity, SIRT2): 94.8%; activity at 0.0064 µM (SIRT2 [1]; inhibitor 0.0064 µM, single trials): 85.9%; %Activity, SIRT2 (SIRT2 [1]; inhibitor 0.0064 µM, single trials, 0.0064 µM): 94.59%; remaining activity at 0.032 µM (SIRT2 [1]; inhibitor 0.032 µM, read-out: Normalized Activity, SIRT2): 85.2%; activity at 0.032 µM (SIRT2 [1]; inhibitor 0.032 µM, single trials): 77.2%; %Activity, SIRT2 (SIRT2 [1]; inhibitor 0.032 µM, single trials, 0.032 µM): 83.831%; remaining activity at 0.5 µM (SIRT2 [1]; inhibitor 0.5 µM, read-out: Normalized Activity, SIRT2): 5.68%; activity at 0.5 µM (SIRT2 [1]; inhibitor 0.5 µM, single trials): 5.65%; %Activity, SIRT2 (SIRT2 [1]; inhibitor 0.5 µM, single trials, 0.5 µM): 6.5384%; remaining activity at 1 µM (SIRT2 [1]; inhibitor 1 µM, read-out: Normalized Activity, SIRT2): 3.34%; activity at 1 µM (SIRT2 [1]; inhibitor 1 µM, single trials): 3.54%; %Activity, SIRT2 (SIRT2 [1]; inhibitor 1 µM, single trials, 1 µM): 4.6849%; remaining activity at 2 µM (SIRT2 [1]; inhibitor 2 µM, read-out: Normalized Activity, SIRT2): 3.21%; activity at 2 µM (SIRT2 [1]; inhibitor 2 µM, single trials): 3.42%; %Activity, SIRT2 (SIRT2 [1]; inhibitor 2 µM, single trials, 2 µM): 4.4288%; remaining activity at 4 µM (SIRT2 [1]; inhibitor 4 µM, read-out: Normalized Activity, SIRT2): 2.33%; activity at 4 µM (SIRT2 [1]; inhibitor 4 µM, single trials): 2.63%; %Activity, SIRT2 (SIRT2 [1]; inhibitor 4 µM, single trials, 4 µM): 3.5157%; remaining activity at 50 µM (SIRT2 [1]; inhibitor 50 µM, read-out: Normalized Activity, SIRT2): 0%; activity at 50 µM (SIRT2 [1]; inhibitor 50 µM, single trials): 0.535%; %Activity, SIRT2 (SIRT2 [1]; inhibitor 50 µM, single trials, 50 µM): 1.0081%; IC50 (SIRT2 [1]; mean ± SD of two independent experiments, read-out: IC50, SIRT2): 92 ± 3 nM; remaining activity at 0.0064 µM (SIRT1; inhibitor 0.0064 µM, read-out: Normalized Activity, SIRT1): 92.8%; remaining activity at 0.032 µM (SIRT1; inhibitor 0.032 µM, read-out: Normalized Activity, SIRT1): 87.5%; remaining activity at 0.5 µM (SIRT1; inhibitor 0.5 µM, read-out: Normalized Activity, SIRT1): 26.2%; remaining activity at 2 µM (SIRT1; inhibitor 2 µM, read-out: Normalized Activity, SIRT1): 2.97%; remaining activity at 50 µM (SIRT1; inhibitor 50 µM, read-out: Normalized Activity, SIRT1): 0%; IC50 (SIRT1; [3]): 250 ± 50 nM; remaining activity at 0.5 µM (SIRT3; inhibitor 0.5 µM, read-out: Normalized Activity, SIRT3): 98.2%; remaining activity at 1 µM (SIRT3; inhibitor 1 µM, read-out: Normalized Activity, SIRT3): 96.2%; remaining activity at 2 µM (SIRT3; inhibitor 2 µM, read-out: Normalized Activity, SIRT3): 103%; remaining activity at 4 µM (SIRT3; inhibitor 4 µM, read-out: Normalized Activity, SIRT3): 82.4%; remaining activity at 10 µM (SIRT3; inhibitor 10 µM, read-out: Normalized Activity, SIRT3): 59.8%; remaining activity at 25 µM (SIRT3; inhibitor 25 µM, read-out: Normalized Activity, SIRT3): 29.6%; remaining activity at 50 µM (SIRT3; inhibitor 50 µM, read-out: Normalized Activity, SIRT3): 9.72%; remaining activity at 100 µM (SIRT3; inhibitor 100 µM, read-out: Normalized Activity, SIRT3): 0%; IC50 (SIRT3; [3]): 14000 ± 1000 nM

Question: `CCCCCCCCCCCCCC(=S)NCCCC[C@H](NC(=O)[C@@H](NC(=O)[C@@H](NC(=O)[C@@H](N)CC)[C@@H](C)O)C(C)C)C(=O)N[C@H](C(N)=O)[C@@H](C)CC` [S2P04(Abu)-5-tMyK] (H-[Abu]TV[Lys(thiomyristoyl)]I-NH2) was tested. Which IC50 (SIRT2 [2]; 10 nM SIRT2, 15 min preincubation, 5 µM substrate, n = 2) did it give?
Answer: 18 ± 6 nM

Question: And the activity at 0.000460773 µM (SIRT2 [2]; inhibitor 0.460773 nM)?
Answer: 83.3%

Question: And the “%Activity, SIRT2” value (SIRT2 [2]; inhibitor 0.460773 nM, 0.000460773 µM)?
Answer: 75.1766%

Question: What about the activity at 0.000921546 µM (SIRT2 [2]; inhibitor 0.921546 nM) of the same compound?
Answer: 84.4%

Question: What about the “%Activity, SIRT2” value (SIRT2 [2]; inhibitor 0.921546 nM, 0.000921546 µM) of the same compound?
Answer: 83.3137%

Question: And the activity at 0.00184309 µM (SIRT2 [2]; inhibitor 1.84309 nM)?
Answer: 92.7%

Question: And the “%Activity, SIRT2” value (SIRT2 [2]; inhibitor 1.84309 nM, 0.00184309 µM)?
Answer: 107.334%

Question: What about the activity at 0.00368618 µM (SIRT2 [2]; inhibitor 3.68618 nM) of the same compound?
Answer: 92.3%

Question: What about the “%Activity, SIRT2” value (SIRT2 [2]; inhibitor 3.68618 nM, 0.00368618 µM) of the same compound?
Answer: 86.7202%

Question: What about the “%Activity, SIRT2” value (SIRT2 [2]; inhibitor 7.37237 nM, 0.00737237 µM) of the same compound?
Answer: 106.229% and 65.8212%

Question: What about the activity at 0.0147447 µM (SIRT2 [2]; inhibitor 14.7447 nM) of the same compound?
Answer: 70.6%

Question: What about the “%Activity, SIRT2” value (SIRT2 [2]; inhibitor 14.7447 nM, 0.0147447 µM) of the same compound?
Answer: 50.6621%

Question: What about the activity at 0.058979 µM (SIRT2 [2]; inhibitor 58.979 nM) of the same compound?
Answer: 27.7%

Question: What about the “%Activity, SIRT2” value (SIRT2 [2]; inhibitor 58.979 nM, 0.058979 µM) of the same compound?
Answer: 13.9723%

Question: What about the activity at 0.117958 µM (SIRT2 [2]; inhibitor 117.958 nM) of the same compound?
Answer: 20.7%

Question: And the “%Activity, SIRT2” value (SIRT2 [2]; inhibitor 117.958 nM, 0.117958 µM)?
Answer: 15.5064%

Question: And the “%Activity, SIRT2” value (SIRT2 [2]; inhibitor 235.916 nM, 0.235916 µM)?
Answer: 2.564% and 11.5055%

Question: And the “%Activity, SIRT2” value (SIRT2 [2]; inhibitor 471.832 nM, 0.471832 µM)?
Answer: 2.292% and -2.292%

Question: What about the “%Activity, SIRT2” value (SIRT2 [2]; inhibitor 943.663 nM, 0.943663 µM) of the same compound?
Answer: 6.074% and 14.5226%
